Test results as given in patent publication US7943618B2, “Btk protein kinase inhibitors” (Roche Palo Alto LLC, priority 2007, dated 2011).

target: T1, Btk enzyme (His-tagged, full-length) (Homo sapiens, UniProt Q06187); assay: Bruton's Tyrosine Kinase (Btk) Inhibition Assay (33P filtration capture); assay type: biochemical; details: Bruton's tyrosine kinase Assay (Example 34); Table I pyridazinones; 100 μM ATP
T1 construct: 5-10 nM Btk enzyme (His-tagged, full-length); His
Source text: Bruton's Tyrosine Kinase (Btk) Inhibition Assay
The assay is a capture of radioactive ^33P phosphorylated product through filtration. The interactions of Btk, biotinylated SH2 peptide substrate (Src homology), and ATP lead to phosphorylation of the peptide substrate. Biotinylated product is bound streptavidin sepharose beads. All bound, radiolabeled products are detected by scintillation counter.
Plates assayed are 96-well polypropylene (Greiner) and 96-well 1.2 μm hydrophilic PVDF filter plates (Millipore).
IC50 determinations are calculated from 10 data points per compound utilizing data produced from a standard 96-well plate assay template. One control compound and seven unknown inhibitors were tested on each plate and each plate was run twice. […] The control compound was staurosporine. Background was counted in the absence of peptide substrate. Total activity was determined in the presence of peptide substrate. The following protocol was used to determine Btk inhibition.
1) Sample preparation: The test compounds were diluted at half-log increments in assay buffer (imidazole, glycerol-2-phosphate, EGTA, MnCl2, MgCl2, BSA).
2) Bead preparation • a.) rinse beads by centrifuging at 500 g • b.) reconstitute the beads with PBS and EDTA to produce a 20% bead slurry
3) Pre-incubate reaction mix without substrate (assay buffer, DTT, ATP, ^33P ATP) and mix with substrate (assay buffer, DTT, ATP, ^33P ATP, peptide substrate) 30° C. for 15 min.
4) To start assay, pre-incubate 10 μL Btk in enzyme buffer (imidazole, glycerol-2-phosphate, BSA) and 10 μL of test compounds for 10 min at RT.
5) Add 30 μL reaction mixture without or with substrate to Btk and compounds.
6) Incubate 50 μL total assay mix for 30 min at 30° C.
7) Transfer 40 μL of assay to 150 μL bead slurry in filter plate to stop reaction.
8) Wash filter plate after 30 min, with following steps • a. 3×250 μL NaCl • b. 3×250 μL NaCl containing 1% phosphoric acid • c. 1×250 μL H2O
9) Dry plate for 1 h at 65° C. or overnight at RT
10) Add 50 μL microscint-20 and count ^33P cpm on scintillation counter.
Calculate percent activity from raw data in cpm percent activity=(sample−bkg)/(total activity−bkg)×100
Calculate IC50 from percent activity, using one-site dose response sigmoidal model y=A+((B−A)/(1+((x/C)^D))))

T1 sequence (Q06187 whole entry): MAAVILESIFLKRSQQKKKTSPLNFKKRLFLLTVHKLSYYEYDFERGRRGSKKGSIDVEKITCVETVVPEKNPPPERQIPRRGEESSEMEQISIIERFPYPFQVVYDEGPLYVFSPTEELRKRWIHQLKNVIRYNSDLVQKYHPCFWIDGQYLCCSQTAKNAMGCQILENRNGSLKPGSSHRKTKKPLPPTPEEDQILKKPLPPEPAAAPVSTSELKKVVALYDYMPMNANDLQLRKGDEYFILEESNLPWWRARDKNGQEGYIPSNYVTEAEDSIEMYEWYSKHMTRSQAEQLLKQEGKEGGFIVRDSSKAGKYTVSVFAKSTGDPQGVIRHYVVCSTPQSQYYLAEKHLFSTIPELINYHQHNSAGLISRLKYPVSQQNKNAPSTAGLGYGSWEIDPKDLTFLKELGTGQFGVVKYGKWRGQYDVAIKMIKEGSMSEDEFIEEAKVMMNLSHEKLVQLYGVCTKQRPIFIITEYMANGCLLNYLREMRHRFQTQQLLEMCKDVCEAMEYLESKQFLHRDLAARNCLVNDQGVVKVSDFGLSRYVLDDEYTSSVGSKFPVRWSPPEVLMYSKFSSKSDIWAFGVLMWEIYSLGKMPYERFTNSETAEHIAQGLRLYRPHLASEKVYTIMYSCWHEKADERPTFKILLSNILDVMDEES

Row | SMILES | IC50
1 | Cn1nc(-c2cccc(CC(=O)NCCC(O)C(C)(C)C)c2)cc(Nc2ccc(C(=O)N3CCOCC3)cn2)c1=O (stereo not drawn) [Compound I-29] | 1720 nM
2 | Cc1c(NC(=O)c2ccc(C(C)(C)C)cc2)cccc1-c1cc(Nc2ccnc(S(C)(=O)=O)n2)c(=O)n(C)n1 [Compound I-13] | 1060 nM
3 | Cc1c(NC(=O)c2ccc(N(C)C)cc2)cccc1-c1cc(Nc2ccc(C(=O)N3CCC(O)CC3)cn2)c(=O)n(C)n1 [Compound I-28, 4-Dimethylamino-N-(3-{5-[5-(4-hydroxy-piperidine-1-carbonyl)-pyridin-2-ylamino]-1-methyl-6-oxo-1,6-dihydro-pyridazin-3-yl}-2-methyl-phenyl)-benzamide] | 34 nM
4 | Cn1nc(-c2cccc(CC(=O)c3ccc(C(C)(C)C)cc3)c2)cc(Nc2ccc(C(=O)N3CCOCC3)cn2)c1=O [Compound I-37, 6-{3-[2-(4-tert-Butyl-phenyl)-2-oxo-ethyl]-phenyl}-2-methyl-4-[5-(morpholine-4-carbonyl)-pyridin-2-ylamino]-2H-pyridazin-3-one] | 206 nM
5 | CC(=O)N1CCN(C(=O)Cc2cccc(-c3cc(Nc4ccc(C(=O)N5CCOCC5)cn4)c(=O)n(C)n3)c2)CC1 [Compound I-44] | 61600 nM
6 | Cc1c(NC(=O)c2ccc(C(C)(C)C)cc2)cccc1-c1cc(Nc2ccnc(N3CCC(O)C3)n2)c(=O)n(C)n1 (stereo not drawn) [Compound I-22, 4-tert-Butyl-N-(3-{5-[2-(3-hydroxy-pyrrolidin-1-yl) -pyrimidin-4-ylamino]-1-methyl-6-oxo-1-6-dihydro-pyridazin-3-yl}-2-methyl-phenyl)-benzamide] | 52 nM

same assay, conditions: Bruton's tyrosine kinase Assay (Example 34); Table II pyridinones; 100 μM ATP

Row | SMILES | IC50
7 | CC(O)CNC(=O)Nc1cc(-c2cccc(NC(=O)c3ccc(C4CC4)cc3)c2CO)cn(C)c1=O (stereo not drawn) [II-86] | 68 nM
8 | CNC(=O)Nc1cc(-c2cccc(CC(=O)N3Cc4ccc(F)cc4C3)c2)cn(C)c1=O [II-46] | 3440 nM
9 | Cn1cc(-c2cccc(NC(=O)c3ccc(C(Cl)(Cl)Cl)cc3)c2CO)cc(Nc2ccc(C(=O)N3CCOCC3)cn2)c1=O [II-74] | 50 nM
10 | Cn1cc(-c2cccc(NC(=O)c3ccc([Si](C)(C)C)cc3)c2CO)cc(Nc2ccc(C(=O)N3CCOCC3)cn2)c1=O [II-76] | 40 nM
11 | CNC(=O)Nc1cc(-c2cccc(NC(=O)c3ccc(C(C)(C)C)cc3)c2)cn(C)c1=O [II-27] | 131 nM
12 | Cn1cc(-c2cccc(NC(=O)c3ccc(C4(C(F)F)CC4)cc3)c2CO)cc(Nc2ccc(C(=O)N3CCOCC3)cn2)c1=O [II-72, 4-(1-Difluoromethyl-cyclopropyl)-N-(2-hydroxymethyl-3-{1-methyl-5-[5-(morpholine-4-carbonyl)-pyridin-2-ylamino]-6-oxo-1,6-dihydro-pyridin-3-yl}-phenyl)-benzamide] | < 10 nM
13 | Cn1cc(-c2cccc(NC(=O)c3ccc(C(C)(C)C#N)cc3)c2CO)cc(Nc2ccc(C(=O)N3CCOCC3)cn2)c1=O [II-96] | < 10 nM
14 | Cn1cc(-c2cccc(NC(=O)c3ccc(C4CC4)cc3)c2CO)cc(NC(=O)NCC2CCCO2)c1=O (stereo not drawn) [II-84] | 60 nM
15 | Cn1cc(-c2cccc(NC(=O)c3ccc(S(F)(F)(F)(F)F)cc3)c2CO)cc(Nc2ccc(C(=O)N3CCOCC3)cn2)c1=O [II-89] | < 10 nM
16 | Cn1cc(-c2cccc(NC(=O)c3ccc(C(F)(F)F)cc3)c2CO)cc(Nc2ccc(C(=O)N3CCOCC3)cn2)c1=O [II-55] | 85 nM
17 | C[C@H](O)CNC(=O)Nc1cc(-c2cccc(NC(=O)c3ccc(C4CC4)cc3)c2CO)cn(C)c1=O [II-54] | 68 nM
18 | CN(C)CCCNC(=O)Nc1cc(-c2cccc(NC(=O)c3ccc(C4CC4)cc3)c2CO)cn(C)c1=O [II-80] | 43 nM
19 | Cn1cc(-c2cccc(NC(=O)c3ccc(C4CC4)cc3)c2CO)cc(Nc2cnccn2)c1=O [II-98] | 90 nM
20 | Cn1cc(-c2cccc(NC(=O)c3ccc(C4CC4)cc3)c2CO)cc(Nc2cccnn2)c1=O [II-95] | 20 nM
21 | Cn1cc(-c2cccc(NC(=O)c3ccc(C4CC4)cc3)c2CO)cc(Nc2ccc(C(=O)N3CC(F)(F)C3)cn2)c1=O [II-100] | 31 nM
22 | Cn1cc(-c2cccc(NC(=O)c3ccc(C4(F)CC4)cc3)c2CO)cc(Nc2ccccn2)c1=O [II-64] | 50 nM
23 | CNC(=O)Nc1cc(-c2cccc(NC(=O)c3ccc(N(C)C)nc3)c2C)cn(C)c1=O [II-15, 6-Dimethylamino-N-{2-methyl-3-[1-methyl-5-(3-methyl-ureido)-6-oxo-1,6-dihydro-pyridin-3-yl]-phenyl}-nicotinamide] | 2310 nM
24 | CNC(=O)Nc1cc(-c2cccc(CC(=O)N3Cc4cc(Cl)c(Cl)cc4C3)c2)cn(C)c1=O [II-31] | 14800 nM
25 | CNC(=O)Nc1cc(-c2cccc(NC(=O)c3ccc(C(C)(C)C#N)cc3)c2C)cn(C)c1=O [II-42, 4-(Cyano-dimethyl-methyl)-N-{2-methyl-3-[1-methyl-5-(3-methyl-ureido)-6-oxo-1,6-dihydro-pyridin-3-yl]-phenyl}-benzamide] | 681 nM
26 | CNC(=O)Nc1cc(-c2cccc(NC(=O)c3ccc(C(C)(C)O)cc3)c2C)cn(C)c1=O [II-28, 4-(1-Hydroxy-1-methyl-ethyl)-N-{2-methyl-3-[1-methyl-5-(3-methyl-ureido)-6-oxo-1,6-dihydro-pyridin-3-yl]-phenyl}-benzamide] | 230 nM

Row | SMILES | IC50
27 | Cn1cc(-c2cccc(NC(=O)c3ccc(C4CC4)cc3)c2CO)cc(NC(=O)NCCCN2CCOCC2)c1=O [II-83] | 54 nM
28 | Cn1cc(-c2cccc(NC(=O)c3ccc(C(C)(C)F)cc3)c2CO)cc(Nc2ccc(C(=O)N3CCOCC3)cn2)c1=O [II-52] | < 10 nM
29 | C#Cc1ccc(C(=O)Nc2cccc(-c3cc(Nc4ccc(C(=O)N5CCOCC5)cn4)c(=O)n(C)c3)c2CO)cc1 [II-69] | 76 nM
30 | Cn1cc(-c2cccc(NC(=O)c3ccc(N4CCCCC4)cc3)c2CO)cc(Nc2ccc(C(=O)N3CCOCC3)cn2)c1=O [II-97] | 114 nM
31 | Cn1cc(-c2cccc(NC(=O)c3ccc4c(c3)OCC4(C)C)c2CO)cc(Nc2ccc(C(=O)N3CCOCC3)cn2)c1=O [II-71, 3,3-Dimethyl-2,3-dihydro-benzofuran-6-carboxylic acid (2-hydroxymethyl-3-{1-methyl-5-[5-(morpholine-4-carbonyl)-pyridin-2-ylamino]-6-oxo-1,6-dihydro-pyridin-3-yl}-phenyl)-amide] | < 10 nM
32 | CN(C)c1ccc(C(=O)Nc2cccc(-c3cc(Nc4ccc(C(=O)N5CCC(N(C)C)CC5)cn4)c(=O)n(C)c3)c2CO)cc1 [II-60] | < 10 nM
33 | Cn1cc(-c2cccc(NC(=O)c3ccc(C4CC4)cc3)c2CO)cc(Nc2ccc(N3CCOCC3)nn2)c1=O [II-103] | 14 nM
34 | CCOc1cccc(Nc2cc(-c3cccc(NC(=O)c4ccc(C5CC5)cc4)c3CO)cn(C)c2=O)n1 [II-90] | 81 nM
35 | CCn1nc(Nc2cc(-c3cccc(NC(=O)c4ccc(C5CC5)cc4)c3CO)cn(C)c2=O)ccc1=O [II-91] | 66 nM
36 | Cn1cc(-c2cccc(NC(=O)N3Cc4ccccc4C3)c2CO)cc(Nc2ccc(C(=O)N3CCOCC3)cn2)c1=O [II-102] | < 10 nM
37 | CC(C)n1nc(Nc2cc(-c3cccc(NC(=O)c4ccc(C5CC5)cc4)c3CO)cn(C)c2=O)ccc1=O [II-88] | 140 nM
38 | CCNC(=O)Nc1cc(-c2cccc(NC(=O)c3ccc(C(C)(C)C)cc3)c2C)cn(C)c1=O [II-5] | 13 nM
39 | CN(C)c1ccc(C(=O)Nc2cccc(-c3cc(Nc4ccccn4)c(=O)n(C)c3)c2CO)cc1 [II-59] | 20 nM
40 | Cc1ccc(Nc2cc(-c3cccc(NC(=O)c4ccc(C5CC5)cc4)c3CO)cn(C)c2=O)nn1 [II-94] | 24 nM
41 | Cn1cc(-c2cccc(NC(=O)c3ccc(C4CC4)cc3)c2CO)cc(Nc2ccc(=O)n(Cc3ccccc3)n2)c1=O [II-93] | 298 nM
42 | Cn1cc(-c2cccc(NC(=O)c3ccc(C(C)(C)C(F)(F)F)cc3)c2CO)cc(Nc2ccc(C(=O)N3CCNCC3)cn2)c1=O [II-81, N-(2-Hydroxymethyl-3-{1-methyl-6-oxo-5-[5-(piperazine-1-carbonyl)-pyridin-2-ylamino]-1,6-dihydro-pyridin-3-yl}-phenyl)4-(2,2,2-trifluoro-1,1-dimethyl-ethyl)-benzamide] | < 10 nM
43 | CCNC(=O)Nc1cc(-c2cccc(NC(=O)c3ccc(C4CC4)cc3)c2CO)cn(C)c1=O [II-77] | 40 nM
44 | CNC(=O)Nc1cc(-c2cccc(NC(=O)c3ccc4c(ccn4C)c3)c2C)cn(C)c1=O [II-23, 1-Methyl-1H-indole-5-carboxylic acid{2-methyl-3-[1-methyl-5-(3-methyl-ureido)-6-oxo-1,6-dihydro-pyridin-3-yl]-phenyl}-amide] | 9930 nM
45 | Cn1cc(-c2cccc(NC(=O)c3ccc(C4CC4)cc3)c2CO)cc(Nc2ccc(C(=O)N3CCCC3)cn2)c1=O [II-99] | 11 nM
